From the NIST ThermoML archive (doi:10.1021/je5003779)

Experiments:
[1] = refractive index (other wavelength) (dimensionless); xn = mol fraction of the nth substance listed; settings: 296.27 K, 101 kPa, Liquid, Wavelength=632.8 nm, Standard Abbe refractometry
[2] = heat capacity at constant pressure per volume; xn = mol fraction of the nth substance listed; settings: 101 kPa, Liquid, Differential Scanning Calorimeter, x1 = 0.133
[3] = refractive index (other wavelength) (dimensionless); settings: 101.3 kPa, Liquid, Wavelength=632.8 nm, Standard Abbe refractometry

CCn1cc[n+](C)c1.O=S(=O)([N-]S(=O)(=O)C(F)(F)F)C(F)(F)F + CCCO
Settings | heat capacity [J/K/m3] | refractive index
[1], x1 = 0.021 | – | 1.3854
[1], x1 = 0.056 | – | 1.3896
[1], x1 = 0.097 | – | 1.3935
[1], x1 = 0.142 | – | 1.3971
[1], x1 = 0.149 | – | 1.3977
[1], x1 = 0.192 | – | 1.4006
[1], x1 = 0.243 | – | 1.4036
[1], x1 = 0.306 | – | 1.4064
[1], x1 = 0.397 | – | 1.4099
[1], x1 = 0.502 | – | 1.4131
[1], x1 = 0.699 | – | 1.4174
[1], x1 = 0.855 | – | 1.4199
[1], x1 = 1 | – | 1.4222
[2], 295 K | 2448000 | –
[2], 296 K | 2164000 | –
[2], 297 K | 2118000 | –
[2], 298 K | 2122000 | –
[2], 299 K | 2105000 | –
[2], 300 K | 2103000 | –
[2], 301 K | 2101000 | –
[2], 302 K | 2082000 | –
[2], 303 K | 2087000 | –
[2], 304.01 K | 2092000 | –
[2], 305 K | 2090000 | –
[2], 306 K | 2090000 | –
[2], 307 K | 2094000 | –
[2], 308 K | 2095000 | –
[2], 309 K | 2098000 | –
[2], 310 K | 2097000 | –
[2], 311 K | 2098000 | –
[2], 312 K | 2102000 | –
[2], 313 K | 2103000 | –
[2], 314 K | 2103000 | –
[2], 315 K | 2108000 | –
[2], 316 K | 2108000 | –
[2], 317 K | 2111000 | –
[2], 318 K | 2113000 | –
[2], 319 K | 2114000 | –
[2], 320 K | 2117000 | –
[2], 321 K | 2117000 | –
[2], 322 K | 2121000 | –
[2], 323 K | 2124000 | –
[2], 324 K | 2125000 | –
[2], 325 K | 2124000 | –
[2], 326 K | 2129000 | –
[2], 327 K | 2131000 | –
[2], 328 K | 2133000 | –
[2], 329.01 K | 2135000 | –
[2], 330 K | 2134000 | –
[2], 331 K | 2139000 | –

CCCO [propan-1-ol]
[3]
Settings | refractive index
284.73 K | 1.387
286.91 K | 1.3861
288.21 K | 1.3856
289.24 K | 1.3851
290.26 K | 1.3847
291.26 K | 1.3843
292.59 K | 1.3837
293.69 K | 1.3833
296.27 K | 1.3823

CCCO [propan-1-ol] + CCn1cc[n+](C)c1.O=S(=O)([N-]S(=O)(=O)C(F)(F)F)C(F)(F)F
Settings | refractive index
[1], x2 = 0 | 1.3823

CCn1cc[n+](C)c1.O=S(=O)([N-]S(=O)(=O)C(F)(F)F)C(F)(F)F
[3]
Settings | refractive index
285.03 K | 1.4252
287.17 K | 1.4246
288.97 K | 1.4242
290.28 K | 1.4238
291.11 K | 1.4236
292.19 K | 1.4233
293.16 K | 1.423
294.21 K | 1.4227
295.18 K | 1.4225
297.26 K | 1.4219
